Drawing on patent publication US7776862B2, “Pyridyl and phenyl substituted piperazine-piperidines with CXCR3 antagonist activity” (Schering Corporation, priority 2005, dated 2010), this text covers IC50 for 59 compounds.

The assay addresses T1, human CXCR3 (N-delta 4) (Homo sapiens, UniProt P49682).
T1 construct: CD8 leader; Flag tag; expressed in transfected cells; membranes used
T1 sequence (P49682 5-368 limits assumed): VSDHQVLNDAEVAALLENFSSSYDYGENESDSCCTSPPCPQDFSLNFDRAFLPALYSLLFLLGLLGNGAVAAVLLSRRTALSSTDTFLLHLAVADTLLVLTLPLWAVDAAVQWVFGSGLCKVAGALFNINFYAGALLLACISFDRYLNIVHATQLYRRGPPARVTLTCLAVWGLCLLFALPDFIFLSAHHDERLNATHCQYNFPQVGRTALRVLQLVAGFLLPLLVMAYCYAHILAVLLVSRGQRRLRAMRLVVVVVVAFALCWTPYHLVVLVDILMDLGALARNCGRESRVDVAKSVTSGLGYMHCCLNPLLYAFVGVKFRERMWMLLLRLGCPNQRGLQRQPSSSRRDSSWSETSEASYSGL
Kind of assay: Human CXCR3 (N-delta 4) scintillation proximity assay (SPA), [125I] IP-10 binding. To be noted: IC50 rating; Ba/F3-hCXCR3 (N-delta 4) membranes, 25 pM [125I] IP-10. The procedure, abridged:
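IP-10 and compound titrations added together. The receptor source was SPA beads bearing membranes from Ba/F3 cells transfected with human CXCR3 (N-delta 4) carrying a CD8 leader and Flag tag.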
On the technique in general: Scintillation proximity formats need no separation of bound from free tracer.
The IC50 is the concentration that gives 50% inhibition. Read a low IC50 as greater potency in that assay. Compound `CNC(=O)c1cnc(N2CCN(C3CCN(Cc4ccc(C)cc4)CC3)[C@@H](C)C2)c(Cl)c1` [compound 320] displayed a half-inhibitory concentration (IC50) of 0.025 to 0.1 µM.
`N#Cc1ccc(CN2CCC(N3CCN(c4ncc(C(=O)NCc5ccc(F)cc5)cc4Cl)CC3)CC2)cc1` [compound 321] registered a half-inhibitory concentration (IC50) of 0.025 to 0.1 µM.
Regarding `COc1ccc(CN2CCC(N3CCN(c4ncc(C(=O)NCc5ccc(C(F)(F)F)cc5)cc4Br)CC3)CC2)cc1` [compound 322], the IC50 lay within 0.025 to 0.1 µM.
`O=C(NCCOc1ccccc1)c1cnc(N2CCN(C3CCN(Cc4ccc(Cl)cc4)CC3)CC2)c(Cl)c1` [compound 323] registered a half-inhibitory concentration (IC50) of 0.025 to 0.1 µM.
The value for `N#Cc1ccc(CN2CCC(N3CCN(c4ncc(C(=O)NCc5ccc(C(F)(F)F)cc5)cc4Br)CC3)CC2)cc1` [compound 324] was 0.025 to 0.1 µM.
The value for `O=C(NCc1ccc(C(F)(F)F)cc1)c1cnc(N2CCN(C3CCN(Cc4ccc(Br)cc4)CC3)CC2)c(Br)c1` [compound 325] was over 0.1 µM; that for `CCNC(=O)c1cnc(N2CCN(C3CCN(C(C)(C)c4ccc(Cl)cc4)CC3)[C@@H](C)C2)c(Cl)c1` [compound 326] was over 0.1 µM.
The value for `C[C@H]1CN(c2ncc(C(=O)NCc3ccc(F)c(F)c3)cc2Cl)CCN1C1CCN(CCC(=O)c2ccc(Cl)cc2)CC1` [compound 327] was over 0.1 µM; that for `CNC(=O)c1cnc(N2CCN(C3CCN([C@@H](C)c4ccc(Cl)cc4)CC3)[C@@H](C)C2)c(Cl)c1` [compound 328] was over 0.1 µM.
`N#Cc1ccc(C(=O)N2CCC(N3CCN(c4ncc(C(=O)NCCOc5ccccc5)cc4Br)CC3)CC2)cc1` [compound 329] showed an IC50 of over 0.1 µM.
Compound `CCNC(=O)c1cnc(N2CCN(C3CCN([C@H](CC)c4ccc(Cl)cc4)CC3)[C@@H](C)C2)c(Cl)c1` [compound 330] gave a half-maximal inhibitory concentration (IC50) of over 0.1 µM.
The value for `COc1ccc(CN2CCC(N3CCN(c4ncc(C(=O)NCCOc5ccccc5)cc4Cl)CC3)CC2)cc1` [compound 331] was over 0.1 µM.
With `CC[C@H]1CN(c2ncc(C(N)=O)cc2Cl)CCN1C1CCN(C(=O)c2ccc(Cl)cc2)CC1` [compound 332] the figure was over 0.1 µM; with `CNC(=O)c1cnc(N2CCN(C3CCN(Cc4ccc(Cl)nc4)CC3)[C@@H](C)C2)c(Cl)c1` [compound 333], over 0.1 µM; with `CNC(=O)c1cnc(N2CCN(C3CCN(Cc4cccc(C)c4)CC3)[C@@H](C)C2)c(Cl)c1` [compound 334], over 0.1 µM.
In turn, `C[C@H]1CN(c2ncc(C(=O)NCC3CCCCC3)cc2Cl)CCN1C1CCN(C(=O)c2ccc(C#N)cc2)CC1` [compound 335] came in with a half-inhibitory concentration (IC50) of over 0.1 µM.
The value for `N#Cc1ccc(CN2CCC(N3CCN(c4ncc(C(=O)NCc5ccc(C(F)(F)F)cc5)cc4Cl)CC3)CC2)cc1` [compound 336] was over 0.1 µM; that for `CNC(=O)c1cnc(N2CCN(C3CCN(C(=O)c4ccc(Cl)cc4)CC3)[C@@H](C)C2)c(Cl)c1` [compound 337] was over 0.1 µM; that for `N#Cc1ccc(CN2CCC(N3CCN(c4ncc(C(=O)NCCOc5ccccc5)cc4Cl)CC3)CC2)cc1` [compound 338] was over 0.1 µM.
The value for `CCNC(=O)c1cnc(N2CCN(C3CCN(C(CC)c4ccc(Cl)cc4)CC3)[C@@H](C)C2)c(Cl)c1` (some centres unmarked) [compound 339] was over 0.1 µM; that for `CCOC(CNC(=O)c1cnc(N2CCN(C3CCN(Cc4ccc(Cl)cc4)CC3)[C@@H](C)C2)c(Cl)c1)OCC` [compound 340] was over 0.1 µM; that for `CNC(=O)c1cnc(N2CCN(C3CCN(Cc4c(F)cc(F)cc4F)CC3)[C@@H](C)C2)c(Cl)c1` [compound 341] was over 0.1 µM.
`CC[C@H]1CN(c2ncc(C(=O)NN)cc2Cl)CCN1C1CCN(C(=O)c2ccc(Br)cc2)CC1` [compound 342] returned a concentration for half-maximal inhibition (IC50) of over 0.1 µM.
With `CC[C@H]1CN(c2ncc(C(=O)N(C)OC)cc2Cl)CCN1C1CCN(Cc2ccc(Cl)cc2F)CC1` [compound 343], the IC50 was over 0.1 µM.
Compound `CCNC(=O)c1cnc(N2CCN(C3CCN([C@@H](CC)c4ccc(Cl)cc4)CC3)[C@@H](C)C2)c(Cl)c1` [compound 344] registered a 50% inhibitory concentration (IC50) of over 0.1 µM.
The value for `COc1ccc(CNC(=O)c2cnc(N3CCN(C4CCN(Cc5ccc(C#N)cc5)CC4)CC3)c(Cl)c2)cc1` [compound 345] was over 0.1 µM; that for `O=C(NCc1ccc(F)c(F)c1)c1cnc(N2CCN(C3CCN(CCOc4ccc(F)cc4)CC3)CC2)c(Cl)c1` [compound 346] was over 0.1 µM.
The compound `CC[C@H]1CN(c2ncc(C(=O)NNC(N)=O)cc2Cl)CCN1C1CCN(Cc2ccc(Cl)cc2F)CC1` [compound 347] returned an IC50 of over 0.1 µM.
In turn, `C[C@H]1CN(c2ncc(C(=O)N3CCC3)cc2Cl)CCN1C1CCN(Cc2ccc(Cl)cc2)CC1` [compound 348] had a 50% inhibitory concentration (IC50) of over 0.1 µM.
The value for `CNC(=O)c1cnc(N2CCN(C3CCN(Cc4ccccc4Cl)CC3)[C@@H](C)C2)c(Cl)c1` [compound 349] was over 0.1 µM; that for `CC[C@H]1CN(c2ncc(C(=O)N=C(N)N)cc2Cl)CCN1C1CCN(Cc2ccc(Br)cc2F)CC1` [compound 350] was over 0.1 µM.
For the compound `O=C(NCc1ccc(F)c(F)c1)c1cnc(N2CCN(C3CCN(C(=O)c4ccc(Cl)c(Cl)c4)CC3)CC2)c(Cl)c1` [compound 351], the IC50 was over 0.1 µM.
With `CNC(=O)c1cnc(N2C[C@H](C)N(C3CCN(Cc4ccc(Cl)cc4F)CC3)C[C@H]2C)c(Cl)c1` [compound 352] the figure was over 0.1 µM; with `O=C(Nc1ccc(Cl)cn1)c1cnc(N2CCN(C3CCN(Cc4ccc(Cl)cc4)CC3)CC2)c(Cl)c1` [compound 353], over 0.1 µM; with `CNC(=O)c1cnc(N2CCN(C3CCN(Cc4ccc(F)cc4S(=O)(=O)N(C)c4ccc(Cl)cc4)CC3)[C@@H](C)C2)c(Cl)c1` [compound 354], over 0.1 µM.
With `C[C@H]1CN(c2ncc(C(=O)N3CCCCC3)cc2Cl)CCN1C1CCN(Cc2ccc(Cl)cc2)CC1` [compound 355] the figure was over 0.1 µM.
With `CC[C@H]1CN(c2ncc(C(=O)NC)cc2Cl)CCN1C1CCN(C2c3ccc(Cl)cc3CCc3cccnc32)CC1` (some centres unmarked) [compound 356] the figure was over 0.1 µM; with `C=CCNc1c(C(N)=O)cnc(N2CCN(C3CCN(Cc4ccc(Cl)cc4F)CC3)[C@@H](CC)C2)c1Cl` [compound 357], over 0.1 µM; with `O=C(NCc1cccnc1)c1cnc(N2CCN(C3CCN(Cc4ccc(Cl)cc4)CC3)CC2)c(Cl)c1` [compound 358], over 0.1 µM.
The compound `CNC(=O)c1cnc(N2CCN(C3CCN(/C(=N\C#N)c4ccc(Cl)cc4)CC3)[C@@H](C)C2)c(Cl)c1` [compound 359] showed an IC50 of over 0.1 µM.
The value for `CNC(=O)c1cnc(N2CCN(C3CCN(Cc4c(C)cccc4C)CC3)[C@@H](C)C2)c(Cl)c1` [compound 360] was over 0.1 µM; that for `CNC(=O)c1cnc(N2CCN(C3CCN(C(=O)c4cc5cc(Cl)ccc5[nH]4)CC3)[C@@H](C)C2)c(Cl)c1` [compound 361] was over 0.1 µM; that for `O=C(NCc1ccc(F)c(F)c1)c1cnc(N2CCN(C3CCN(Cc4ccccc4)CC3)CC2)c(Cl)c1` [compound 362] was over 0.1 µM.
With `CC[C@H]1CN(c2ncc(C(=O)NC)c3ccccc23)CCN1C1CCN(Cc2ccc(Cl)cc2F)CC1` [compound 363] the figure was over 0.1 µM.
On to `O=C(NCCc1c[nH]c2ccccc12)c1cnc(N2CCN(C3CCN(Cc4ccc(Cl)cc4)CC3)CC2)c(Cl)c1` [compound 364], for which the half-maximal inhibitory concentration (IC50) is over 0.1 µM.
With `CC[C@H]1CN(c2ncc(C(=O)NCc3ccc(F)c(F)c3)cc2Cl)CCN1C1CCN(C)CC1` [compound 365] the figure was over 0.1 µM.
The value for `CNC(=O)c1cnc(N2CCN(C3CCN(Cc4c(F)cccc4F)CC3)[C@@H](C)C2)c(Cl)c1` [compound 366] was over 0.1 µM; that for `CC[C@H]1CN(c2ncc(CNC(=O)NC3CC3)cc2Cl)CCN1C1CCN(Cc2ccc(Br)cc2F)CC1` [compound 367] was under 0.025 µM; that for `CCNC(=O)NCc1cnc(N2CCN(C3CCN(Cc4ccc(Cl)cc4F)CC3)[C@@H](CC)C2)c(Cl)c1` [compound 368] was under 0.025 µM.
With `CC[C@H]1CN(c2ncc(CNC(=O)NCC(F)(F)F)cc2Cl)CCN1C1CCN(Cc2ccc(Cl)cc2F)CC1` [compound 369], the half-maximal inhibitory concentration (IC50) was under 0.025 µM.
In turn, `CC[C@H]1CN(c2ncc(CNC(=O)NC(C)C)cc2Cl)CCN1C1CCN(Cc2ccc(Cl)cc2F)CC1` [compound 370] registered a half-inhibitory concentration (IC50) of under 0.025 µM.
With `CC[C@H]1CN(c2ncc(CNC(=O)NCC(F)(F)F)cc2Cl)CCN1C1CCN(Cc2ccc(Br)cc2F)CC1` [compound 371] the figure was under 0.025 µM; with `CC[C@H]1CN(c2ncc(CNC(=O)NC3CC3)cc2Cl)CCN1C1CCN(Cc2ccc(Cl)cc2F)CC1` [compound 372], under 0.025 µM; with `CC[C@H]1CN(c2ncc(CNC(=O)NC(C)(C)C)cc2Cl)CCN1C1CCN(Cc2ccc(Cl)cc2F)CC1` [compound 373], under 0.025 µM.
Compound `CC[C@H]1CN(c2ncc(CNC(=S)NC3CC3)cc2Cl)CCN1C1CCN(Cc2ccc(Cl)cc2F)CC1` [compound 374] registered an IC50 of under 0.025 µM.
In turn, `CC[C@H]1CN(c2ncc(CO)cc2Cl)CCN1C1CCN(Cc2ccc(Br)cc2)CC1` [compound 375] displayed an IC50 of under 0.025 µM.
`CC[C@H]1CN(c2ncc(CNC(N)=O)cc2Cl)CCN1C1CCN(Cc2ccc(Br)cc2F)CC1` [compound 376] registered an IC50 of under 0.025 µM.
With `CC[C@H]1CN(c2ncc(CNC(=O)NC)cc2Cl)CCN1C1CCN(Cc2ccc(Cl)cc2F)CC1` [compound 377], the 50% inhibitory concentration (IC50) is under 0.025 µM.
On to `CC[C@H]1CN(c2ncc(CNS(C)(=O)=O)cc2Cl)CCN1C1CCN(Cc2ccc(Br)cc2F)CC1` [compound 378], for which the 50% inhibitory concentration (IC50) was under 0.025 µM.
